Laboratory results taken from patent US20110218100A1 (priority 2005, published 2011).

Legend:
[1] = tested on: Fusarium graminearum; type: in vivo; details: barley, curative spray, 125 g/ha of each active compound, evaluation 7 days after inoculation
[2] = tested on: Erysiphe graminis f.sp. tritici; experiment: Erysiphe test (wheat)/curative; type: in vivo; details: curative spray, 125 g/ha of each active compound, evaluation 8 days after inoculation
Description: (§1) Solvent: 50 parts by weight of N,N-dimethylacetamide Emulsifier: 1 part by weight of alkylaryl polyglycol ether
(§2) To produce a suitable preparation of active compound, 1 part by weight of active compound is mixed with the stated amounts of solvent and emulsifier, and the concentrate is diluted with water to the desired concentration.
To test for curative activity, young plants are sprayed with spores of Erysiphe graminis f.sp. tritici. 48 hours after the inoculation, the plants are sprayed with the preparation of active compound at the stated application rate. The plants are placed in a greenhouse at a temperature of about 20° C. and a relative atmospheric humidity of about 80% to promote the development of mildew pustules. Evaluation is carried out 8 days after the inoculation. What is determined is the efficacy in %. 0% means an efficacy which corresponds to that of the control, whereas an efficacy of 100% means that no infection is observed.

[3] = tested on: Pyrenophora teres; experiment: Pyrenophora teres (barley) test/curative; type: in vivo; details: curative spray, 50 g/ha of each active compound, evaluation 8 days after inoculation
Description: as §1
as §2, with “desired concentration or the active compound or a combination of active compounds in a commercially available formulation is diluted with water to the desired” for “desired”
To test for curative activity, young plants are sprayed with a conidia suspension of Pyrenophora teres. The plants remain for 48 hours in an incubation cabinet at 20° C. and a relative atmospheric humidity of 100% and are then sprayed with the preparation of active compound at the stated rate of application.
The plants are placed in a greenhouse at a temperature of approximately 20° C. and a relative atmospheric humidity of approximately 80%.
The test is evaluated 8 days after the inoculation.

[4] = tested on: Penicillium brevicaule; experiment: Penicillium brevicaule test (in vitro)/microtest; type: cell-based; details: 4 days incubation, optical density
Description: The microtest was performed in liquid medium with potato-dextrose broth (PDB) using microtitre plates.
The active compound is applied as the technical active substance dissolved in aceton.
A spore suspension of Penicillium brevicaule was used for inoculation. After 4 days of incubation by darkness under shaking (10 Hrz), the optical density in each cavity was evaluated with the aid of a microtitre plate reader.
0% means an efficacy which corresponds to that of the control, while an efficacy of 100% means that no fungal growth is observed.

Structure (SMILES) | Efficacy in % found [1] [%] | Efficacy in % found [2] [%] | Efficacy in % (Act = actual efficacy) [3] [%] | Efficacy in % ([4]; 0.03 ppm) [%] | Efficacy in % ([4]; 0.003 ppm) [%]
CO/N=C(/C1=NOCCO1)c1ccccc1Oc1ncnc(Oc2ccccc2Cl)c1F [(III-2), fluoxastrobin] | 50 | 39 | 22 | – | –
Cn1cc(C(=O)Nc2ccc(F)cc2-c2ccc(Cl)c(Cl)c2)c(C(F)F)n1 [(I-23), N-(3′,4′-dichloro-5-fluoro-1,1′-biphenyl-2-yl)-3-(difluoromethyl)-1-methyl-1H-pyrazole-4-carboxamide] | – | – | 22 | – | –
OC(Cc1ccccc1Cl)(Cn1nc[nH]c1=S)C1(Cl)CC1 (centres unmarked) [(II-15), prothioconazole] | 58 | 33 | 22 | – | –
CC(C)(C)C(O)(CCc1ccc(Cl)cc1)Cn1cncn1 (centres unmarked) [(II-17), tebuconazole] | – | – | 22 | – | –
Cc1nn(C)c(F)c1C(=O)Nc1ccccc1C(C)CC(C)C (centres unmarked) [(I-2), N-[2-(1,3-dimethylbutyl)phenyl]-5-fluoro-1,3-dimethyl-1H-pyrazole-4-carboxamide] | 42 | 0 | 22 | 16 | –
CON=C(C(=O)OC)c1ccccc1CON=C(C)c1cccc(C(F)(F)F)c1 [(III-4), trifloxystrobin] | – | – | – | – | 1
CC(C)C1CCC(Cc2ccc(Cl)cc2)C1(O)Cn1cncn1 (centres unmarked) [(II-18), ipconazole] | – | – | – | – | 8
